# From patent US20260232715A1, “TREATMENT OF PANCREATIC CANCER” (CAN-FITE BIOPHARMA LTD., priority 2023, published 2026)
# Tests used:
# [1] = test system: BxPC-3 cells; test: 3H-thymidine incorporation assay (cell growth); type: cell-based; details: Homo sapiens, 48 h, read-out: percentage of growth inhibition of BxPC-3 cells
# Description: Cells (15×10^4/mL) were maintained in RPMI medium supplemented with 10% fetal bovine serum (FBS), […], 100 U/ml penicillin, and […] streptomycin solution at 37° C. in a 5% CO2 incubator. Cells were transferred to a freshly prepared medium twice weekly. 3H-thymidine incorporation assay was used to evaluate cell growth. BxPC-3 cells (5,000 cells/well) were incubated (37° C.) with CF102 (namodenoson) in different concentrations: 0.01 nM, 0.1 nM and 1 nM in a 96-well plate for 48 h. Each well was pulsed with 1 μCi 3H-thymidine for the last 24 h. The cells were harvested, and the 3H-thymidine uptake was determined in an LKB liquid scintillation counter (LKB).
# [2] = test system: BxPC-3 cells; test: Presto Blue cell growth inhibition assay; type: cell-based, human
# Description: Cells (15×10^4/mL) were maintained in RPMI medium supplemented with 10% fetal bovine serum (FBS), […], 100 U/ml penicillin, and […] streptomycin solution at 37° C. in a 5% CO2 incubator. Cells were transferred to a freshly prepared medium twice weekly. For the tumor cell growth experiments, BxPC-3 cells (15×10^4/mL) were incubated in the culture medium with control, 5, 10, or 20 nM namodenoson in 96-well microtiter plates for 24 h at 37° C. in a 5% CO2 incubator, after which cell growth inhibition was determined using the Presto Blue assay (Thermo Fisher Scientific, Waltham, MA, USA) used as per the manufacturer's instructions. Experiments under the same conditions with 20 nM namodenoson were also conducted with and without 20 nM of the A3AR antagonist MRS1523 (diluted to the final concentration in RPMI medium).
# [3] = test system: BxPC-3 cells; test: BxPC-3 subcutaneous tumor growth in nude mice; type: in vivo, nude Balb/C mice; details: 10 μg/kg twice daily for 35 days (Day 22 to Day 57), by Day 57 from tumor inoculation
# Description: Male nude Balb/C mice (Harlan Laboratories, Jerusalem, Israel), aged 2 months (mean weight, 25 g), received a subcutaneous flank injection of BxPC-3 cells (2.5×10^6). The mice were maintained on a standardized pelleted diet and supplied with tap water. […] Tumor width (W) and length (L) were measured twice weekly with a caliber, and tumor size was calculated (W^2×L/2).
# [4] = test system: BxPC-3 cells; test: Western blot analysis of regulatory protein expression; type: cell-based, human; details: 20 nM namodenoson, 24 h, vs. control
# Description: Western blot analyses were performed using the same culture conditions as the Presto Blue experiments in 10 cm plates with 20 nM namodenoson or control. After incubation for 24 h at 37° C. in a 5% CO2 incubator, the cell samples were rinsed with ice-cold PBS and transferred to ice-cold RIPA buffer with 1× protease and phosphatase inhibitor cocktail for 20 min. Cell debris was removed using centrifugation at 4° C. for 10 min, at 7500×g. The supernatant was utilized for the Western blot analyses. Protein concentrations were determined using the NanoDrop assay (ThermoFisher Scientific, Waltham, MA, USA). Equal amounts of the sample (50 μg) were separated by SDS-PAGE, using […] (Schleicher & Schuell, Keene, NH, USA). Membranes were blocked with 1% bovine serum albumin and incubated with the relevant primary antibody (dilution 1:1000) for 24 h at 4° C. Blots were then washed and incubated with the secondary antibody for 1 h at room temperature. Bands were recorded using BCIP/NBT color development kit (Promega, Madison, WI, USA).
structure (smiles),measurement,setting,value
"CNC(=O)[C@H]1O[C@@H](n2cnc3c(NCc4cccc(I)c4)nc(Cl)nc32)[C@H](O)[C@@H]1O [namodenoson, 2-chloro-N^6-(3-iodobenzyl)-adenosine-5′-N-methyl-uronamide]",inhibition at 10 pM,[1]; 0.01 nM namodenoson,27.9%
same,inhibition at 0.0001 µM,[1]; 0.1 nM namodenoson,53.7%
same,inhibition at 0.001 µM,[1]; 1 nM namodenoson,67.4%
same,"cell growth, % of the control","[2]; 20 nM namodenoson alone, 24 h",45.0%+4.2 % of the control
same,"cell growth, % of the control","[2]; 20 nM namodenoson plus 20 nM MRS1523, 24 h",81.1%+6.3 % of the control
same,inhibition at 0.005 µM,"[2]; Homo sapiens, BXPC-3, 5 nM, 24 h, mean±SE",49.7%
same,inhibition at 0.01 µM,"[2]; Homo sapiens, BXPC-3, 10 nM, 24 h, mean±SE",66.3%
same,inhibition at 0.02 µM,"[2]; Homo sapiens, BXPC-3, 20 nM, 24 h, mean±SE",82.7%
same,inhibition of tumor growth vs. control,[3],67.7%+15.2
same,A3AR protein expression level,[4],decrease
same,Bad expression,[4],upregulated
same,Bax expression,[4],upregulated
same,GSK-3β expression,[4],upregulation
same,NF-κB expression,[4],downregulated
same,PI3K expression,[4],downregulated
same,cyclin D1 expression level,[4],decrease
same,p-Akt expression,[4],downregulated
same,pERK 1/2 expression level,[4],decrease
same,pMEK 1/2 expression level,[4],decrease
same,pRaf expression level,[4],decrease
same,β-catenin expression level,[4],decrease
"CCCOC(=O)c1c(-c2ccccc2)nc(CC)c(C(=O)SCC)c1CCC [MRS1523, reference compound]","cell growth, % of the control","[2]; 20 nM MRS1523 alone, 24 h",100.8%+11.1 % of the control
